These results are taken from patent publication US20210188905A1, “COMBINING BETA-DIPEPTIDES AND AMINO ACIDS FOR OPTIMAL NUTRITIONAL SUPPLEMENTATION” (Cysal GmbH, priority 2018, published 2021).

Each structure is given as a SMILES string. Some results are limits rather than exact numbers.

Data set [1] is described as follows: Oral supplementation of healthy volunteers, levels in whole blood by UPLC-MSMS. In kind it is in vivo, human. The procedure:
β-Aspartyl-arginine was administered orally either alone or in combination with arginine, and in varying doses. Levels of dipeptide in blood are then monitored over time. The substance used for the experiments is a white powder of β-aspartyl-arginine. The purity is >99% and was determined by HPLC-analysis.
Experimental procedure: The volunteers were three healthy males (age 41 to 51 years, 173-187 cm height, 80-85 kg weight, BMI around 25 kg/m^2). […] The volunteers fasted throughout the experiment. Blood was collected from the fingertip using a lancet device and blotted onto sample cards and levels of dipeptide and amino acids were determined by UPLC-MSMS by an external service provider (Labor Blessing, Singen Germany).

Another data set deals with T1, Arginase (Bovine) (Bos taurus, UniProt Q2KJ64).
T1 construct: purchased Alexis Bio/Sigma ALX-201-081-C020
T1 sequence (Q2KJ64 1-322): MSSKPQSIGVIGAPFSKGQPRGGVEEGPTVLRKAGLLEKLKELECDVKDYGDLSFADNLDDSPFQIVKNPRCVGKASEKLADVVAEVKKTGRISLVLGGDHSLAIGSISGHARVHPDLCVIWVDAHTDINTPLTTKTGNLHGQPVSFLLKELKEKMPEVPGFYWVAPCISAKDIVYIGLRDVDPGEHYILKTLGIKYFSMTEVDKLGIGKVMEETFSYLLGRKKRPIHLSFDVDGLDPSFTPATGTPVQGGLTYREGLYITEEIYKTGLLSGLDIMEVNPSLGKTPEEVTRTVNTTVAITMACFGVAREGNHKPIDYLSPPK
Briefly: Hydrolase susceptibility: arginase reaction, HPLC. In kind it is in vitro ADME. Particulars: 500 μg per ml, 100 U arginase, 37° C., pH 9.5, FIG. 5/6. The text has this:
The release of free amino acids or modified dipeptide after treatment with these enzymes is monitored by HPLC.

For data set [2], the target named is T2, Clostripain (Cl. histolyticum) (Hathewaya histolytica, UniProt P09870).
T2 construct: purchased Sigma C0888-250UN
T2 sequence (P09870 191-526): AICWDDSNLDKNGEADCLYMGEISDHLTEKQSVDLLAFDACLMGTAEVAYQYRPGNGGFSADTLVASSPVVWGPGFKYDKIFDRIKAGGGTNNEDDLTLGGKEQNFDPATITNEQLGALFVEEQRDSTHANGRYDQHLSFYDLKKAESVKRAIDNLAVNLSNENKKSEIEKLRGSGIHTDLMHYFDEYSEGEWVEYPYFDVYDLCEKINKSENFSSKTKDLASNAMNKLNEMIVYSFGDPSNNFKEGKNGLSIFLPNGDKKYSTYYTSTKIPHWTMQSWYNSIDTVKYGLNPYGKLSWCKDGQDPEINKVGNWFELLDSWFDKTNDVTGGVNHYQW
T2 sequence (P09870 51-181): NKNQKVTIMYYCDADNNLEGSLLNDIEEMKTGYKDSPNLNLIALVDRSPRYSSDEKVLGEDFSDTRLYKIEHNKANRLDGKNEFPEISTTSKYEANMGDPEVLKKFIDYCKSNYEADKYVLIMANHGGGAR
Briefly: Hydrolase susceptibility: clostripain, HPLC. In kind it is in vitro ADME. Particulars: 500 μg dipeptide per ml, 10 U, 25° C., pH 7.4, 24 h, FIG. 7. The procedure:
(§1) Arginase catalyzes the final step of the urea cycle and converts L-arginine into L-ornithine und urea. The other tested enzymes (proteases) are able to cleave α-peptide bonds involving aspartate and/or arginine. The release of free amino acids or modified dipeptide after treatment with these enzymes is monitored by HPLC. The substance used for the experiments is a white powder of β-L-aspartyl-L-arginine. The purity is >99% and was determined by HPLC-analysis.

Data set [3] has as its target T3, Chymotrypsin (Bovine pancreas) (Bos taurus, UniProt P00766).
T3 construct: purchased Applichem A4531; host or cells: bovine pancreas
The data set can be described thus: Hydrolase susceptibility: chymotrypsin, HPLC. In kind it is in vitro ADME. The settings on record: 500 μg dipeptide per ml, 150 U, 30° C., pH 7.8, 24 h, FIG. 7. How it is done:
as §1

The target of data set [4] is T4, Trypsin (Bovine pancreas) (Bos taurus, UniProt P00760).
T4 construct: purchased Sigma T1426-50MG; host or cells: bovine pancreas
T4 sequence (P00760 24-246): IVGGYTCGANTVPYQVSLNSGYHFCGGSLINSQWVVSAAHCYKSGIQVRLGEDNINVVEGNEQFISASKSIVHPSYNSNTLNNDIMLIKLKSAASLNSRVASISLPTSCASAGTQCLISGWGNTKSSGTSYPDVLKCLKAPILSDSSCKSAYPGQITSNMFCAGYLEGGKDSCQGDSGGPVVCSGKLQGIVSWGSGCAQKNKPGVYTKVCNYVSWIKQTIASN
The data set can be described thus: Hydrolase susceptibility: trypsin, HPLC. In kind it is in vitro ADME. The settings on record: 500 μg dipeptide per ml, 187.5 U, 25° C., pH 7.6, 24 h, FIG. 7. How it is done: as §1

For data set [5], the system named is Endoproteinase ArgC (mouse). Briefly: Hydrolase susceptibility: endoproteinase Arg-C, HPLC. Type of data set: in vitro ADME. Particulars: 500 μg dipeptide per ml, 37° C., pH 8.5, 24 h, FIG. 7. How it is done:
as §1

In data set [6] the test system is Proteinase N (Bacillus subtilis). Briefly: Hydrolase susceptibility: proteinase N, HPLC. Type of data set: in vitro ADME. The settings on record: 500 μg dipeptide per ml, 28.4 U, 37° C., pH 1-3, 24 h, FIG. 7. The procedure: as §1
Data set [7] concerns bovine liver extract (β-aspartyl peptidases). The data set can be described thus: Cleavage of β-aspartyl dipeptide by bovine liver extract, HPLC. Type of data set: in vitro ADME. Particulars: 10 mM dipeptide, 37° C. The text has this: β-aspartyl dipeptides contain an isoaspartyl peptide bond instead of the α bond common in proteins. It is therefore resistant to cleavage by most common proteases and peptidases. While this resistance is an advantage in the gut and in the bloodstream as it prevents cleavage before reaching the target tissue, it does raise the question as to how the dipeptide is introduced into the metabolism. Specific cytoplasmic isoaspartases (also known as β-aspartyl peptidases) have been found in mammalian tissues that are capable of cleaving a large variety of β-aspartyl dipeptides and related compounds. Specificity is towards the β-aspartyl moiety, with the identity of the moiety bound to this residue being of little importance. The overall reaction can be summarized as:
The substance used for the experiments is a white powder of β-L-aspartyl-L-arginine. The purity is >99% and was determined by HPLC-analysis.
Bovine liver purchased from a butcher was chosen as a model due to ready availability. Liver (50 g fresh weight) was homogenized using a Waring blender in four times its volume of ice-cold phosphate-buffered saline. Insoluble material was removed by centrifugation for 15 min at 9,000×g at 4° C. The supernatant (liver extract) was used immediately as a test solution.
Test setup: An aliquot of 900 μl of liver extract in a 1.5-ml polypropylene tube was placed into a heat block at 37° C. and allowed to heat up for 10 min. Then, a volume of 100 μl of a solution of 100 mM β-aspartyl-arginine phosphate-buffered saline was added to a give a final concentration of 10 mM. Samples of 100 μl were taken at 0, 1, 2, 3, and 4 h after addition of the dipeptide. Immediately after each sample was taken, it was added to a 1.5-ml screw-cap polypropylene tube containing 100 μl of 10% SDS in water and 700 μl of demineralized water. This tube was immediately heated to 100° C. for 10 min to stop any further enzyme activity. The tube was then cooled to room temperature and 100 μl of 10% KCl solution were added. […] The samples were then diluted appropriately with demineralized water and analyzed by HPLC.

For data set [8] the following is noted: oral consumption, human use data; cited from earlier work.
A further data set relates to rat liver extract. The settings on record: β-aspartyl-glycine as a substrate, Dorer et al.; cited from earlier work.
Setting [9] is: equimolar oral doses of free arginine (as arginine aspartate salt), FIG. 3.

On to `N=C(N)NCCC[C@H](NC(=O)C[C@H](N)C(=O)O)C(=O)O` [β-aspartyl-arginine, β-L-aspartyl-L-arginine], for which the “form in which the orally administered substance is taken up into the bloodstream” value in data set [1] (oral) was “uncleaved dipeptide form”. The “period over which the concentration of the dipeptide in whole blood increased” value in data set [1] (oral 2.5 g or 5 g dipeptide in 400 ml water, fasted, three volunteers, FIG. 1) is on record as “about six”. For the same molecule, the “time for which the dipeptide was still detectable in whole blood” value in [1] (oral 2.5 g or 5 g dipeptide, FIG. 1) amounted to 12 h. In [1] (oral dipeptide alone), the “free arginine in blood after administration of the dipeptide” value is given as “only detected at baseline levels”. Also, in data set [1] (oral dose from 2.5 g to 5 g), the “effect of doubling the oral dose on maximum concentration in whole blood” value is “approximately doubled”. For the same molecule, on Arginase (Bovine), the hydrolysis by arginase entry is given as “no significant difference to the start concentration”. Moreover, the “change of dipeptide concentration after clostripain treatment” value in [2] is “No significant difference”. Further, the “change of dipeptide concentration after chymotrypsin treatment” value in data set [3] is “No significant difference”. Also, the “change of dipeptide concentration after trypsin treatment” value in [4] is “No significant difference”. The “change of dipeptide concentration after endoproteinase Arg-C treatment” value in data set [5] is given as “No significant difference”. Moreover, in data set [6], the “change of dipeptide concentration after proteinase N treatment” value is given as “No significant difference”. In data set [7] (0-4 h), the “cleavage by enzymes present in bovine liver” value is “is cleaved”. Moreover, the “hydrolysis activity of liver extract per protein” value in data set [7] (bovine liver extract) is recorded as 0.065 U/mg protein. The “hydrolysis activity of liver extract” value in data set [7] (smaller timescale experiment, FIG. 8) was 2.5 mg of dipeptide being hydrolyzed per gram of liver tissue per hour.

In the case of `N=C(N)NCCC[C@H](N)C(=O)O` [arginine, reference compound], in data set [1] (setting [9]), the “time for blood concentrations to return to baseline” value was not above 4 h and the “time of fast increase in blood concentration” value was “two”. In addition, the “effect of the 5-g dose on blood concentrations versus 2.5 g” value in [1] (oral free arginine (as arginine aspartate salt), FIG. 3) is recorded as “did not lead to substantially increased blood concentrations”. In addition, the “oral amount beyond which arginine levels in blood do not increase” value in data set [8] is 2.5 g.

Regarding `N[C@@H](CC(=O)NCC(=O)O)C(=O)O` [β-aspartyl-glycine], the “hydrolysis activity of rat liver extract” value with rat liver extract is listed as 0.028 U/mg.
